Where a SMILES comes first, the peptide text is derived from it. Where no end group is shown, it is not given here.
Tests used:
ENL = target: T1, ENL (Homo sapiens, UniProt Q03111); experiment: Solution competitive SPR assay of peptides, ENL-DOT1L interaction; type: binding; details: read-out: IC50 against ENL (block PPI DOT1L/ENL)
T1 construct: against AF9(497-568) and ENL (489-559) proteins running different tested concentrations over CM5 chip; MBP (pMSCG9-LIC vector); made in house; host or cells: Escherichia coli BL21 (DE3)
T1 sequence (Q03111 489-559): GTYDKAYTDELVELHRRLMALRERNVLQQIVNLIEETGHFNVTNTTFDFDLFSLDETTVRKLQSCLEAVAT
Protocol: (§1) Solution competitive SPR based assay was performed to determine the IC50 values of DOT1L peptides. […] Response units (RU) were measured at 15 seconds in the dissociation phase and the specific binding was calculated by subtracting the control surface (Fcl) signal from the surfaces with immobilized Mocr-DOT1L. IC50 values were determined by non-linear least squares analysis using Graph Pad Prism 5.0 software.

AF9 [1] = target: T2, AF9 (Homo sapiens, UniProt P42568); experiment: Solution competitive SPR assay of peptides, AF9-DOT1L interaction; type: binding; set-up: against AF9(497-568) and ENL (489-559) proteins running different tested concentrations over CM5 chip; GB1 (pGB1-LIC vector); made in house; host or cells: Escherichia coli BL21 (DE3); details: read-out: IC50 against AF9 (block PPI DOT1L/AF9)
T2 sequence (P42568 497-568): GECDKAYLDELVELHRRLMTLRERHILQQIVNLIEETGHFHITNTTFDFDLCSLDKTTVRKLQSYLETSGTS
Protocol: as §1

MBP tag = MBP tag (Escherichia coli, UniProt P0AEX9); experiment: Isothermal titration calorimetry with MBP tag only; type: binding; details: ITC
Protocol: FIG. 4 describes isothermal titration calorimetry (ITC) of MBP tag only (80 μM) with a solution of DOT1L 16-mer (400 μM). The raw data are shown in the upper panel, and the integrated heat data are shown in the lower panel.
(§2) Isothermal titration calorimetry—ITC was carried out using a Nano-ITC Micro Calorimeter (TA Instruments) at 20° C. MBP-ENL (489-559) was dialysed extensively against 50 mM Na2HPO4, (pH 7.5) and 100 mM NaCl, and 80 μM was used for titration studies of DOT1L 16-mer and 10-mer peptides, and 110 μM for DOT1L 7-mer titration. Tested peptides dissolved in the same buffer at 400 μM (DOT1L 16-mer and 10-mer) or 500 μM (DOT1L 7-mer) were tested by injecting 2 μl aliquots into the protein sample, at time intervals of […], to ensure that the titration peak returned to the baseline. The ITC data were analyzed by NanoAnalyze software package using a one site-binding model.

AF9 [2] = target: T2, AF9; experiment: Optimized competitive FP binding assay (N-Flu-DOT1L / AF9); set-up: the recombinant GB1-AF9 protein (residues 497-568); made in house; host or cells: Escherichia coli BL21 (DE3)
MBP-ENL (489-559) = target: T3, MBP-ENL (489-559) (Homo sapiens, UniProt Q03111); experiment: Isothermal titration calorimetry with MBP-ENL; type: binding; details: ITC, MBP-tagged ENL, 1:1 stoichiometry; read-out: KD to ENL protein
T3 construct: MBP-ENL (489-559) was dialysed extensively; made in house; host or cells: Escherichia coli BL21 (DE3)
T3 sequence (Q03111 489-559): T1 sequence (Q03111 489-559)
Protocol: as §2

Myc-CxxC-AF9 = target: T4, Myc-CxxC-AF9 (Homo sapiens, UniProt P42568+Q03164); experiment: Streptavidin-biotin pull-down in HEK 293 cell lysate; type: binding; details: HEK 293 cell lysates
T4 construct: expressed in transfected cells; host or cells: HEK293
T4 sequence (Q03164+P42568 fused): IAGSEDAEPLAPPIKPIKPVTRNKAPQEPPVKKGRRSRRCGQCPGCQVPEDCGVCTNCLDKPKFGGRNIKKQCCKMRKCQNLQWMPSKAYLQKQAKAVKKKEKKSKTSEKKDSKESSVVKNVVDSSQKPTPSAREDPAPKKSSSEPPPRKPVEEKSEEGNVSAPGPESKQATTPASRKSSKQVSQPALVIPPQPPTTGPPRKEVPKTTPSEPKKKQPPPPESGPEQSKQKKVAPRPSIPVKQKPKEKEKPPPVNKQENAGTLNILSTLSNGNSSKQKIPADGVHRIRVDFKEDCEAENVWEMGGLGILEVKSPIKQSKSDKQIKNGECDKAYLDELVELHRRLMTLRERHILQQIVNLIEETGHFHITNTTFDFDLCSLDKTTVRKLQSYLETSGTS
Protocol: (§3) To assess whether DOT1L 10-mer peptide can bind and block the interaction between full length DOT1L and MLL-fusion proteins HEK 293 cells were transiently co-transfected ith Flag-tagged human DOT1L protein and Myc-tagged CxxC-AF9 protein. The whole cell lysate was pre-incubated with different concentrations of DOT1L 10-mer peptide and co-immunoprecipitation (co-IP) experiments were performed. […] To further probe and confirm the cellular target for DOT1L 10-mer peptide, a biotinylated DOT1L 10-mer peptide was synthesized. To determine the binding affinity of this labeled peptide FP competitive based assay was used and tested together with corresponding unlabeled DOT1L 10 mer peptide.
Pull-down assay—HEK293 cells transfected with Myc-CxxC-AF9 were lysed in BC-300 lysis buffer in a same way as the immunoprecipitation experiment. The supernatant was pre-cleared for 2 h in streptavidin agarose beads (Thermal Scientific). The pre-cleared lysates were incubated with different concentrations of biotin-labeled DOT1L 10 mer peptide at 4° C. overnight. The next day, the cell lysate were incubated with streptavidin agarose at 4° C. for 2 h. After extensive washing the beads with the BC-300 lysis buffer without NP-40, the pull down samples were applied to SDS-PAGE electrophoresis and pull-down Myc-CxxC-AF9 protein was probed with goat monoclonal anti-Myc tag antibody (Abcam).

[3] = target: T5, Flag-DOT1L and Myc-CxxC-AF9 interaction (Homo sapiens, UniProt P42568+Q03164); experiment: Co-immunoprecipitation in HEK 293 cell lysate; type: binding; details: HEK 293 whole cell lysate pre-incubated with peptide
T5 construct: expressed in transfected cells; host or cells: HEK 293
T5 sequence (Q03164+P42568 fused): as above
Protocol: as §3
Cell Culture, Transfections, and Immunoprecipitation—HEK293 cells were plated in 100 mm culture dishes and cultured in Dulbecco's modified Eagle's medium (DMEM) supplemented with 10% FBS and antibiotics. Co-transfection with FLAG-DOTL and Myc-CxxC-AF9 was performed using Lipofectamine 2000 (Invitrogen). […] After incubation, the beads were washed extensively, boiled in SDS loading buffer and analyzed by western blotting using mouse monoclonal anti-FLAG M2 (Sigma-Aldrich) and goat monoclonal anti-Myc tag (Abcam) antibody.

Row | Molecule | IC50 (ENL) [nM] | IC50 (AF9 [1]) [nM] | binding to the MBP tag only (MBP tag) | Ki (AF9 [2]) [nM] | Kd (MBP-ENL (489-559)) [nM] | binding to cellular CxxC-AF9 (pull-down) (Myc-CxxC-AF9) | disruption of DOT1L / CxxC-AF9 interaction (co-IP) [3]
1 | CC[C@H](C)[C@H](NC(=O)[C@@H]1CCCN1C(=O)[C@H](CC(C)C)NC(C)=O)C(=O)N[C@@H](CO)C(=O)N[C@H](C(=O)N1CCC[C@H]1C(=O)N[C@@H](CC(C)C)C(=O)N[C@@H](CO)C(=O)N[C@H](C(=O)N[C@H](C(=O)N[C@@H](CCC(N)=O)C(=O)N1CCC[C@H]1C(=O)N[C@@H](CC(N)=O)C(=O)N[C@@H](CCCCN)C(=O)N[C@@H](CC(C)C)C(=O)N1CCC[C@H]1C(N)=O)C(C)C)[C@@H](C)O)[C@@H](C)CC [DOT1L 16 mer] (Ac-LPISIPLSTVQPNKLP-NH2) | 1560 | 320 | did not show any binding | 80 | 900 | – | –
2 | biotinylated DOT1L 10-mer peptide: DOT1L 10-mer peptide with N-terminal biotin group (LPISIPLSTV-NH2; not fully specified (N-terminus); also: N-terminal biotin coupled to lysine and two β-alanine spacer, order not given here) | – | – | – | – | – | recognizes and binds to the cellular CxxC-AF9 protein in a dose dependent manner | –
3 | CC[C@H](C)[C@H](NC(=O)[C@@H]1CCCN1C(=O)[C@H](CC(C)C)NC(C)=O)C(=O)N[C@@H](CO)C(=O)N[C@H](C(=O)N1CCC[C@H]1C(=O)N[C@@H](CC(C)C)C(=O)N[C@@H](CO)C(=O)N[C@H](C(=O)N[C@H](C(N)=O)C(C)C)[C@@H](C)O)[C@@H](C)CC [DOT1L 10mer] (Ac-LPISIPLSTV-NH2) | 1340 | 490 | – | 68 ± 15 | 1100 | – | blocks the interaction of cellular DOT1L with CxxC-AF9 in a dose dependent manner
